Patent US11320438B2, “Isotopic methods for measurement of tryptophan and metabolites thereof” (ELECTROPHORETICS LIMITED, priority 2015, dated 2022)

Experiments:
SKOV-3 cells = experiment: Degradation of tryptophan and 1-MT in SKOV-3 cell culture supernatants (TMT sixplex LC-MS/MS); assay type: in vitro ADME, human; conditions: for depletion of the substance from the media: after 6 days of incubation; for degradation to methyl-kynurenine: days 0-6, 1000 μM 1-MT with 70 μM tryptophan, or 200 μM 1-MT with no added tryptophan
Procedure: (§1) SKOV-3 ovarian carcinoma cells were cultured in McCoy's 5A Medium (BioConcept, Allschwil, Switzerland) supplemented with L-Tryptophan as indicated (Sigma-Aldrich, Taufkirchen, Germany), 300 mg/l Glutamine (Carl Roth, Karlsruhe, Germany), 10% FBS (Thermo Fisher Scientific Inc., Waltham, Mass., USA) and 100 U/mL penicillin and 100 μg/mL streptomycin (PAA Laboratories, Pasching, Austria). Human embryonic kidney (HEK) cells were cultured in DMEM (PAA Laboratories), 10% FBS (Thermo Scientific) and 100 U/mL penicillin and 100 μg/mL streptomycin (PAA Laboratories). Peripheral blood mononuclear cells (PBMC) were isolated from healthy, non-related blood-donors by density-gradient centrifugation using lymphocyte separation medium LSA 1077 (PAA Laboratories) and cultured in RPMI 1640 (PAA Laboratories) containing 10% FBS (Thermo Fisher Scientific Inc) and 100 U/mL penicillin and 100 μg/mL streptomycin (PAA Laboratories). For the generation of dendritic cells (DC), CD14+ cells were separated using the magnetic activated cell sorting (MACS) technology (Miltenyi Biotec, Bergisch Gladbach, Germany) and plated in RPMI 1640 (Cambrex, Verviers, Belgium) containing 10% FBS, 200 IU/mL interleukin-4 and 1000 IU/mL GM-CSF (Immunotools, Friesoythe, Germany) for 7 days. All cells were routinely tested for contamination by the Multiplex cell Contamination Test (44). Cultures were incubated at 37° C. in a 5% CO2 atmosphere. 20 mM stock solutions (of 1-methyl-D-tryptophan (1-D-MT, lot numbers: 09315BH, 08007EJ) and 1-methyl-L-tryptophan (1-L-MT, lot numbers: 08023HE, 15399MJ) (Sigma-Aldrich) were prepared by dissolving the inhibitors in 0.1 N NaOH. The pH was adjusted to 7.5 using hydrochloric acid. To avoid contamination of the cell cultures, the stock solutions were filtered through 0.2 μm filters. Interferon-gamma (IFN-g) was purchased from Immunotools (Friesoythe, Germany).
(§2) 50 μL of each single cell culture supernatant was labelled with TMT® sixplex reagents (Thermo Fisher Scientific).
The dry TMT® sixplex mixtures were reconstituted in 300 μL of water:acetonitrile 95:5 with 0.1% trifluoroacetic acid (buffer A). 150 μL were fractionated by reversed phase chromatography (Nucleosil 120-5 C18 column, 250 mm×4.6 mm, Macherey Nagel) using a Waters 2695 HPLC with UV detection at 214 nm. After loading, the sample was washed 4 min with buffer A. Then, the substances were eluted by increasing the acetonitrile content within 40 min to 55%. The flow rate was kept at 1.5 mL/min over the entire gradient. The fraction from 18-30 minutes was collected and dried.
(§3) Samples were either measured on a QTof II (Waters) mass spectrometer coupled to an UPLC nanoLC (Waters) on an LTQ Orbitrap Velos Pro (Thermo Scientific) coupled to a Proxeon nanoLC-II (Thermo Scientific) or a triple quadrupole system coupled to nanoLC-II (EASY-nLC II TSQ Vantage system). The samples were resolved in 150 μl 2% ACN, 0.1% formic acid (1 μL sample=1 μL mixed supernatant equivalent).
The SIM m/z range was from 350-500 Th with a resolution of 60000 and an AGC setting of 5e4 with a maximum scan time of 500 ms. MS/MS was acquired as TOP10 in HCD mode with a resolution of 7500 and an AGC setting of 5e4 with a maximum scan time of 500 ms. Isolation width was 1.5 amu and normalized collision energy was 60. The default charge state of the precursor was set to z=1. All other charge states were rejected. Analytes of interest were acquired in MSMS mode using an inclusion list only mode (±50 ppm) and all other analytes not included in the list were discarded.

TDO = target: T1, TDO (Homo sapiens, UniProt P48775); experiment: Degradation in supernatants of HEK cells expressing TDO; assay type: in vitro ADME; conditions: day 0 vs day 6
T1 construct: expressed in transfected cells; host or cells: HEK293 cells, neomycin-selected
Procedure: SKOV-3 ovarian carcinoma cells were cultured in McCoy's 5A Medium (BioConcept, Allschwil, Switzerland) supplemented with L-Tryptophan as indicated (Sigma-Aldrich, Taufkirchen, Germany), 300 mg/l Glutamine (Carl Roth, Karlsruhe, Germany), 10% FBS (Thermo Fisher Scientific Inc., Waltham, Mass., USA) and 100 U/mL penicillin and 100 μg/mL streptomycin (PAA Laboratories, Pasching, Austria). Human embryonic kidney (HEK) cells were cultured in DMEM (PAA Laboratories), 10% FBS (Thermo Scientific) and 100 U/mL penicillin and 100 μg/mL streptomycin (PAA Laboratories). […] All cells were routinely tested for contamination by the Multiplex cell Contamination Test (44). Cultures were incubated at 37° C. in a 5% CO2 atmosphere.
The full length cDNA sequence of IDO1 and TDO was cloned via Gateway® cloning into pDEST-Flag-C, a Gateway® compatible overexpression vector containing a single C-terminal FLAG-tag, resulting in pDEST-TDO-FLAG-C and pDEST-IDO1-FLAG-C.
Basis for the pDEST-FLAG-C was the pDEST26 vector (Invitrogen). The 6×His-tag of pDEST26 was removed with site-directed mutagenesis PCR, resulting in pDEST. The single C-terminal Flag-tag was introduced into pDEST, by site-directed mutagenesis PCR, resulting in Flag-C. […] Cells were selected using 1.5 mg/ml neomycin (Sigma-Aldrich).
as §2, §3

[1] = Serum analysis of LPS-stimulated mice injected with 1-L-MT; conditions: 1 mg/mouse 1-L-MT i.p.
Procedure: Animal work was supervised by institutional animal protection officials in accordance with the National Institute of Health guidelines Guide for the Care and Use of Laboratory Animals. C57BL/6N mice were purchased from Charles River (Sulzfeld, Germany). […] The blood was centrifuged to obtain serum, which was finally prepared for LC-MS/MS measurements.
50 μL of serum sample was precipitated with 50 μL TCA-solution (60 g/l) at 4° C. overnight. The suspension was centrifuged for 15 minutes at 4° C. at 6000 g. The pellet was discarded and the supernatant used for further experiments after neutralization with 1 M NaOH to pH 7-8.
66 μL of each precipitated and neutralized mouse serum sample were diluted with 6 μL of 1M triethylammonium bicarbonate (TEAB, Sigma-Aldrich) and then 24 μL of a 60 mM TMT reagent stock solution in ACN (LichroSolv, VWR) were added. The reaction was incubated for 1 hour at room temperature and finally quenched by adding 12 μL of 2.5% aqueous hydroxylamine solution (Sigma-Aldrich). The respective six labelled serum samples to be compared were mixed and dried.
For the Orbitrap MS runs the mixed mouse serum sample was dissolved in 2% ACN, 0.1% formic acid and ˜0.88 μL of mixed serum equivalent was loaded on column.

human dendritic cells = experiment: 1-MT degradation in interferon-gamma stimulated human dendritic cells; assay type: in vitro ADME; conditions: IFN gamma, after 6 days of incubation
Procedure: as §1, §2, §3
Immune cells can also express tryptophan-degrading enzymes and tryptophan degradation is known to exert potent immunosuppressive effects (9). To assess whether also immune cells, such as dendritic cells, degrade 1-MT to methyl-kynurenine, three independent biological samples of supernatants of human dendritic cells from two different donors were analysed (only donor 1 shown). […]

HEK control cells (WT) = experiment: Degradation in supernatants of HEK control cells (WT); assay type: in vitro ADME, human; conditions: data not shown
Procedure: SKOV-3 ovarian carcinoma cells were cultured in McCoy's 5A Medium (BioConcept, Allschwil, Switzerland) supplemented with L-Tryptophan as indicated (Sigma-Aldrich, Taufkirchen, Germany), 300 mg/l Glutamine (Carl Roth, Karlsruhe, Germany), 10% FBS (Thermo Fisher Scientific Inc., Waltham, Mass., USA) and 100 U/mL penicillin and 100 μg/mL streptomycin (PAA Laboratories, Pasching, Austria). Human embryonic kidney (HEK) cells were cultured in DMEM (PAA Laboratories), 10% FBS (Thermo Scientific) and 100 U/mL penicillin and 100 μg/mL streptomycin (PAA Laboratories). Peripheral blood mononuclear cells (PBMC) were isolated from healthy, non-related blood-donors by density-gradient centrifugation using lymphocyte separation medium LSA 1077 (PAA Laboratories) and cultured in RPMI 1640 (PAA Laboratories) containing 10% FBS (Thermo Fisher Scientific Inc) and 100 U/mL penicillin and 100 μg/mL streptomycin (PAA Laboratories). […]
Samples were either measured on a QTof II (Waters) mass spectrometer coupled to an UPLC nanoLC (Waters) on an LTQ Orbitrap Velos Pro (Thermo Scientific) coupled to a Proxeon nanoLC-II (Thermo Scientific) or a triple quadrupole system coupled to nanoLC-II (EASY-nLC II TSQ Vantage system). […]

[2] = target: T2, aryl hydrocarbon receptor (Homo sapiens, UniProt P35869); experiment: qRT-PCR of AHR target genes in SKOV-3 cells; assay type: cell-based
T2 construct: Treatment of SKOV-3 cells with 1-D/L-MT under tryptophan-free conditions induced the AHR target genes CYP1A1 and TIPARP; endogenous in cells; host or cells: SKOV-3 ovarian carcinoma cells
T2 sequence (P35869 11-848): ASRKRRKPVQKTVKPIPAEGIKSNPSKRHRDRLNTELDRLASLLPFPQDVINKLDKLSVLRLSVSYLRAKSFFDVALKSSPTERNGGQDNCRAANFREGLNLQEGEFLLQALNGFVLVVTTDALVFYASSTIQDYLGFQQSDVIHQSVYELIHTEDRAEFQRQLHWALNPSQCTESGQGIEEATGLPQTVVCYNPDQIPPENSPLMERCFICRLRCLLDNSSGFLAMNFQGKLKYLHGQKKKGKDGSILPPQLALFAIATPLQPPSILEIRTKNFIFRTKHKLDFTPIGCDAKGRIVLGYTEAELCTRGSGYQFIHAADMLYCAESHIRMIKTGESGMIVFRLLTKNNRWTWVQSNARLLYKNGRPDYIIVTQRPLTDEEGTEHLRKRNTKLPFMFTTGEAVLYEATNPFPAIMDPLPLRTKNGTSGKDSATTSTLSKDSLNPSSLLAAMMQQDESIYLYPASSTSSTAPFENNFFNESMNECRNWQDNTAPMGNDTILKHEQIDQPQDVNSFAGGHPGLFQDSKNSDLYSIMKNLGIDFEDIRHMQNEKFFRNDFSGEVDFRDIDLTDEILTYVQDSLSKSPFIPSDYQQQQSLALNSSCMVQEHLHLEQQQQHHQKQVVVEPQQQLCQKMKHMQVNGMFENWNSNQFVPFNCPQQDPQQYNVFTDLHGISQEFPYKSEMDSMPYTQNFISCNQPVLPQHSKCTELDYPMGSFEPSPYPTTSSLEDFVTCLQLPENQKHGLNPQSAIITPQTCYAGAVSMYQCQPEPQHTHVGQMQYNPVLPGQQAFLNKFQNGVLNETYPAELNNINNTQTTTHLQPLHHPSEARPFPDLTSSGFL
Procedure: as §1, with “20 mM stock solutions (of 1-methyl-D-tryptophan (1-D-MT, lot numbers: 09315BH, 08007EJ) and 1-methyl-L-tryptophan (1-L-MT, lot numbers: 08023HE, 15399MJ) (Sigma-Aldrich) were prepared by dissolving the inhibitors in 0.1 N NaOH. The pH was adjusted to 7.5 using hydrochloric acid. To avoid contamination of the cell cultures, the stock solutions were filtered through 0.2 μm filters. Interferon-gamma (IFN-g) was purchased from Immunotools (Friesoythe, Germany).” left out
Total RNA was isolated with the Qiagen RNAeasy RNA isolation kit (Hilden, Germany) and cDNA was synthesized with the Applied Biosystems reverse-transcription-Kit (Foster City, USA) according to manufacturer's instructions. […] The size of the amplicons was analyzed by loading the samples and a 100 bp ladder (Invitrogen, Leek, Netherlands) on a 2% agarose gel, which was then stained with ethidium bromide and analyzed under UV light. […] Relative quantification of gene expression was determined by comparison of threshold values. […]

[3] = SKOV-3 cells, tryptophan-free conditions, qRT-PCR

T1 sequence (P48775 whole entry): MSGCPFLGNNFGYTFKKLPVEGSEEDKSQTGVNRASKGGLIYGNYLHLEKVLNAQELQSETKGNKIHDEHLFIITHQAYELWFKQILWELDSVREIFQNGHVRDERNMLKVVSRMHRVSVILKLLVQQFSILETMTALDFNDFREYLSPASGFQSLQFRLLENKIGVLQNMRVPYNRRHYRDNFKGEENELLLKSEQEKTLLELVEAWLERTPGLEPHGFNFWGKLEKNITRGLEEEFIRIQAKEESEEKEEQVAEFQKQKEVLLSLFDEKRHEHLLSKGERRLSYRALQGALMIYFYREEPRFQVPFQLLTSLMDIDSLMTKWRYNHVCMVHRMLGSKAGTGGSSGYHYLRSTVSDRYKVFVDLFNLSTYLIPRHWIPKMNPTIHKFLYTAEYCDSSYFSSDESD

SMILES: N[C@H](Cc1c[nH]c2ccccc12)C(=O)O [D-tryptophan]
- depletion of the substance from the media (SKOV-3 cells): not entirely depleted

SMILES: Cn1cc(C[C@H](N)C(=O)O)c2ccccc21 [1-L-MT, 1-methyl-L-tryptophan]
- increase in methyl-kynurenine after treatment (TDO): very slight increase
- serum methyl-kynurenine versus mice treated with LPS alone [1]: significantly higher concentrations of methyl-kynurenine
- depletion of the substance from the media (SKOV-3 cells): completely depleted
- degradation to methyl-kynurenine (SKOV-3 cells): degraded more quickly than 1-D-MT
- methyl-kynurenine in the media (human dendritic cells): increase in methyl-kynurenine
- reduction of substrate in the media (human dendritic cells): reduction

SMILES: N[C@@H](Cc1c[nH]c2ccccc12)C(=O)O [tryptophan]
- degradation / decrease of substrate in cell supernatants (TDO): degraded tryptophan to kynurenine
- degradation by HEK control cells (HEK control cells (WT)): degraded neither

SMILES: N[C@@H](Cc1c[nH]c2ccccc12)C(=O)O [L-tryptophan]
- depletion of the substance from the media (SKOV-3 cells): completely depleted

SMILES: Cn1cc(C[C@H](N)C(=O)O)c2ccccc21 [1-MT, 1-methyl-tryptophan]
- degradation / decrease of substrate in cell supernatants (TDO): no decrease
- degradation by HEK control cells (HEK control cells (WT)): degraded neither

SMILES: Cn1cc(CC(N)C(=O)O)c2ccccc21 [1-D/L-MT]
- induction of AHR target gene CYP1A1 [2, 3]: induced
- induction of AHR target gene TIPARP [2, 3]: induced

SMILES: CNc1ccccc1C(=O)C[C@H](N)C(=O)O [methyl-kynurenine, (S)—N-methyl kynurenine]
- activation of the AHR ([2]; inferred from treatment of SKOV-3 cells with 1-D/L-MT): capable of activating the AHR

SMILES: Cn1cc(C[C@@H](N)C(=O)O)c2ccccc21 [1-D-MT, 1-methyl-D-tryptophan]
- increase in methyl-kynurenine after treatment (TDO): not
- metabolism of tryptophan to kynurenine in treated samples (SKOV-3 cells; D-MT compared with L-MT samples): more quickly and higher kynurenine levels were reached
- degradation to methyl-kynurenine (SKOV-3 cells): degraded to methyl-kynurenine
- methyl-kynurenine in the media (human dendritic cells): increase in methyl-kynurenine
- reduction of substrate in the media (human dendritic cells): no clear reduction
